Measurements as given in patent publication US20230085307A1, “PYRIDAZINONE COMPOUND AND HERBICIDE” (NISSAN CHEMICAL CORPORATION, priority 2019, published 2023).

Tests used:
[1] = test system: barnyard grass; assay: Test Example 5: herbicidal effect by foliage application, plastic box (Table 20, symbol H); format: in vivo, barnyard grass (Echinochloa crus-galli); conditions: for H: barnyard grass, herbicidal effect grade / herbicidal effect on barnyard grass (H): foliage application, 320 g/ha, three weeks after application
Outline: (§1)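 Sow seeds spot-wise in sterilized diluvial soil; cover with ~1.5 cm soil. Grow 14 days in greenhouse, 25° C. to 30° C. Spray foliage with emulsion diluted to predetermined amount. Rate effect after 3 weeks.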

[2] = test system: Chinese sprangletop; assay: Test Example 3: herbicidal effect by foliage application, Wagner pot (Table 18, symbol D); format: in vivo, chinese sprangletop (Leptochloa chinensis); conditions: for herbicidal effect on Chinese sprangletop (D): 320 g/ha
Outline: (§2)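 Plants were sown in alluvial soil held under 0.1–0.5 cm standing water and grown 14 days in a greenhouse at 25–30 °C. An emulsifiable formulation, water-diluted to the set dose, was then sprayed onto the foliage, and effects were scored three weeks later using previously defined criteria.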

[3] = test system: southern crabgrass; assay: Test Example 5: herbicidal effect by foliage application, plastic box (Table 20, symbol F); format: in vivo, southern crabgrass (Digitaria ciliaris); conditions: for F: southern crabgrass, herbicidal effect grade / herbicidal effect on southern crabgrass (F): foliage application, 320 g/ha, three weeks after application
Outline: as §1

[4] = test system: velvetleaf; assay: Test Example 5: herbicidal effect by foliage application, plastic box (Table 20, symbol M); format: in vivo, velvetleaf (Abutilon theophrasti); conditions: for M: velvetleaf, herbicidal effect grade / herbicidal effect on velvetleaf (M): foliage application, 320 g/ha, three weeks after application
Outline: as §1

[5] = test system: southern crabgrass; assay: Test Example 4: herbicidal effect by soil treatment (Table 19, symbol F); format: in vivo, southern crabgrass (Digitaria ciliaris); conditions: amount of applied herbicide 320 g/ha
From the text: (§3) [Test Example 4] Herbicidal Effect Test by Soil Treatment
(§4) Sterilized diluvial soil was placed in a plastic box having a length of 21 cm, a width of 13 cm, and a depth of 7 cm. The seeds of each of southern crabgrass, green foxtail, barnyard grass, wild oat, blackgrass, Italian ryegrass, windgrass, velvetleaf, redroot pigweed, lambsquarters, chickweed, false cleavers, persian speedwell, corn, soybean, rice, wheat, beet, and rapeseed were sowed in a spot-like manner and covered with the soil having a thickness of about 1.5 cm. Subsequently, the emulsion agent of the compound of the present invention prepared according to Formulation Example 2 was diluted with water so as to achieve a predetermined herbicide amount, and the diluted emulsion agent was uniformly applied to the surface of the soil with a small-sized spray. The plastic box was placed in a greenhouse at 25° C. to 30° C. for growth of the plants. Three weeks after the herbicide application, the effect of the herbicide on each plant was evaluated according to the criteria of Test Example 1.

[6] = test system: green foxtail; assay: Test Example 4: herbicidal effect by soil treatment (Table 19, symbol G); format: in vivo, green foxtail (Setaria viridis); conditions: amount of applied herbicide 320 g/ha
From the text: as §3, §4

[7] = test system: barnyard grass; assay: Test Example 4: herbicidal effect by soil treatment (Table 19, symbol H); format: in vivo, barnyard grass (Echinochloa crus-galli); conditions: amount of applied herbicide 320 g/ha
From the text: as §3, §4

[8] = test system: lambsquarters; assay: Test Example 4: herbicidal effect by soil treatment (Table 19, symbol O); format: in vivo, lambsquarters (Chenopodium album); conditions: amount of applied herbicide 320 g/ha
From the text: as §3, §4

[9] = test system: barnyard grass; assay: Test Example 3: herbicidal effect by foliage application, Wagner pot (Table 18, symbol H); format: in vivo, barnyard grass (Echinochloa crus-galli); conditions: for herbicidal effect on barnyard grass (H): 320 g/ha
Outline: as §2

[10] = test system: lambsquarters; assay: Test Example 5: herbicidal effect by foliage application, plastic box (Table 20, symbol O); format: in vivo, lambsquarters (Chenopodium album); conditions: for O: lambsquarters, herbicidal effect grade / herbicidal effect on lambsquarters (O): foliage application, 320 g/ha, three weeks after application
Outline: as §1

[11] = test system: redroot pigweed; assay: Test Example 5: herbicidal effect by foliage application, plastic box (Table 20, symbol N); format: in vivo, redroot pigweed (Amaranthus retroflexus); conditions: for N: redroot pigweed, herbicidal effect grade: foliage application, 320 g/ha, three weeks after application
From the text: [Test Example 5] Herbicidal Effect Test by Foliage Application
as §4, with “Thereafter, the plants were grown in a greenhouse at 25° C. to 30° C. After 14-day growth of the plants,” for “Subsequently,”, “a foliage part” for “the surface of the soil”, “spray.” for “spray. The plastic box was placed in a greenhouse at 25° C. to 30° C. for growth of the plants.”

[12] = test system: green foxtail; assay: Test Example 5: herbicidal effect by foliage application, plastic box (Table 20, symbol G); format: in vivo, green foxtail (Setaria viridis); conditions: for G: green foxtail, herbicidal effect grade / herbicidal effect on green foxtail (G): foliage application, 320 g/ha, three weeks after application
Outline: as §1

[13] = test system: velvetleaf; assay: Test Example 4: herbicidal effect by soil treatment (Table 19, symbol M); format: in vivo, velvetleaf (Abutilon theophrasti); conditions: amount of applied herbicide 320 g/ha
From the text: as §3, §4

[14] = test system: redroot pigweed; assay: Test Example 4: herbicidal effect by soil treatment (Table 19, symbol N); format: in vivo, redroot pigweed (Amaranthus retroflexus); conditions: amount of applied herbicide 320 g/ha
From the text: as §3, §4

[15] = test system: rice flat sedge; assay: Test Example 3: herbicidal effect by foliage application, Wagner pot (Table 18, symbol E); format: in vivo, rice flat sedge (Cyperus iria); conditions: for herbicidal effect on rice flat sedge (E): 320 g/ha
Outline: as §2

[16] = test system: wild oat; assay: Test Example 5: herbicidal effect by foliage application, plastic box (Table 20, symbol I); format: in vivo, wild oat (Avena fatua); conditions: for herbicidal effect on wild oat (I): foliage application, 320 g/ha, three weeks after application
Outline: as §1

[17] = test system: blackgrass; assay: Test Example 5: herbicidal effect by foliage application, plastic box (Table 20, symbol J); format: in vivo, blackgrass (Alopecurus myosuroides); conditions: for herbicidal effect on blackgrass (J): foliage application, 320 g/ha, three weeks after application
Outline: as §1

[18] = test system: persian speedwell; assay: Test Example 5: herbicidal effect by foliage application, plastic box (Table 20, symbol R); format: in vivo, Persian speedwell (Veronica persica); conditions: for herbicidal effect on persian speedwell (R): foliage application, 320 g/ha, three weeks after application
Outline: as §1

[19] = test system: windgrass; assay: Test Example 5: herbicidal effect by foliage application, plastic box (Table 20, symbol L); format: in vivo, windgrass (Apera spica-venti); conditions: for herbicidal effect on windgrass (L): foliage application, 320 g/ha, three weeks after application
Outline: as §1

[20] = test system: Italian ryegrass; assay: Test Example 5: herbicidal effect by foliage application, plastic box (Table 20, symbol K); format: in vivo, Italian ryegrass (Lolium multiflorum); conditions: for herbicidal effect on Italian ryegrass (K): foliage application, 320 g/ha, three weeks after application
Outline: as §1

[21] = amount of applied herbicide 320 g/ha
[22] = amount of applied herbicide 320 g/ha, foliage application after 14-day growth, evaluated three weeks after application

| Compound | H: barnyard grass, herbicidal effect grade [1] | herbicidal effect on D: Chinese sprangletop [2, 21] | F: southern crabgrass, herbicidal effect grade [3] | M: velvetleaf, herbicidal effect grade [4] | herbicidal effect, F: southern crabgrass [5] | herbicidal effect, G: green foxtail [6] | herbicidal effect, H: barnyard grass [7] | herbicidal effect, O: lambsquarters [8] | herbicidal effect on H: barnyard grass [9, 21] | O: lambsquarters, herbicidal effect grade [10] | N: redroot pigweed, herbicidal effect grade [11] | G: green foxtail, herbicidal effect grade [12] | herbicidal effect, M: velvetleaf [13] | herbicidal effect, N: redroot pigweed [14] | herbicidal effect on E: rice flat sedge [15, 21] | herbicidal effect on Chinese sprangletop (D) [2] | herbicidal effect on barnyard grass (H) [9] | herbicidal effect on rice flat sedge (E) [15] | herbicidal effect on wild oat (I) [16] | herbicidal effect on barnyard grass (H) [1] | also measured |
| --- | --- | --- | --- | --- | --- | --- | --- | --- | --- | --- | --- | --- | --- | --- | --- | --- | --- | --- | --- | --- | --- |
| CC(CSc1ccc(-c2sc3ccc(F)cc3c2-c2c(O)c(C)nn(C)c2=O)cc1)=NO [2-452] | 5 (Herbicidal rate of 90% or more (almost completely withered)) | 0 (Herbicidal rate of 5% or less (almost no effect)) | 3 (Herbicidal rate of 40% or more and less than 70%) | 5 (Herbicidal rate of 90% or more (almost completely withered)) | 0 (Herbicidal rate of 5% or less (almost no effect)) | 0 (Herbicidal rate of 5% or less (almost no effect)) | 0 (Herbicidal rate of 5% or less (almost no effect)) | 4 (Herbicidal rate of 70% or more and less than 90%) | 5 (Herbicidal rate of 90% or more (almost completely withered)) | 5 (Herbicidal rate of 90% or more (almost completely withered)) | 5 (Herbicidal rate of 90% or more (almost completely withered)) | 5 (Herbicidal rate of 90% or more (almost completely withered)) | 0 (Herbicidal rate of 5% or less (almost no effect)) | 5 (Herbicidal rate of 90% or more (almost completely withered)) | 5 (Herbicidal rate of 90% or more (almost completely withered)) |  |  |  |  |  |  |
| Cc1nn(C)c(=O)c(-c2c(-c3ccc(OC(F)(F)F)cc3)sc3ccc(Cl)cc23)c1O [2-457] | 5 (Herbicidal rate of 90% or more (almost completely withered)) | 3 (Herbicidal rate of 40% or more and less than 70%) | 3 (Herbicidal rate of 40% or more and less than 70%) | 3 (Herbicidal rate of 40% or more and less than 70%) | 0 (Herbicidal rate of 5% or less (almost no effect)) | 0 (Herbicidal rate of 5% or less (almost no effect)) | 0 (Herbicidal rate of 5% or less (almost no effect)) | 2 (Herbicidal rate of 20% or more and less than 40%) | 5 (Herbicidal rate of 90% or more (almost completely withered)) | 5 (Herbicidal rate of 90% or more (almost completely withered)) | 4 (Herbicidal rate of 70% or more and less than 90%) | 3 (Herbicidal rate of 40% or more and less than 70%) | 1 (Herbicidal rate of 5% or more and less than 20%) | 3 (Herbicidal rate of 40% or more and less than 70%) | 5 (Herbicidal rate of 90% or more (almost completely withered)) |  |  |  |  |  |  |
| COCc1ccccc1-c1sc2c(Cl)cccc2c1-c1c(O)c(C)nn(C)c1=O [4-081] |  |  |  |  |  |  |  |  |  |  |  |  |  |  |  | 0 (Herbicidal rate of 5% or less (almost no effect)) | 3 (Herbicidal rate of 40% or more and less than 70%) | 0 (Herbicidal rate of 5% or less (almost no effect)) |  |  | Herbicidal effect by foliage application, I: wild oat [16, 22]: 0 (Herbicidal rate of 5% or less (almost no effect)); Herbicidal effect by foliage application, H: barnyard grass [1, 22]: 3 (Herbicidal rate of 40% or more and less than 70%); Herbicidal effect by foliage application, F: southern crabgrass [3, 22]: 0 (Herbicidal rate of 5% or less (almost no effect)); Herbicidal effect by foliage application, M: velvetleaf [4, 22]: 3 (Herbicidal rate of 40% or more and less than 70%); Herbicidal effect by foliage application, J: blackgrass [17, 22]: 0 (Herbicidal rate of 5% or less (almost no effect)); Herbicidal effect by foliage application, O: lambsquarters [10, 22]: 1 (Herbicidal rate of 5% or more and less than 20%); Herbicidal effect by foliage application, N: redroot pigweed [11, 22]: 1 (Herbicidal rate of 5% or more and less than 20%); Herbicidal effect by foliage application, G: green foxtail [12, 22]: 3 (Herbicidal rate of 40% or more and less than 70%); Herbicidal effect by foliage application, R: persian speedwell [18, 22]: 1 (Herbicidal rate of 5% or more and less than 20%); Herbicidal effect by foliage application, L: windgrass [19, 22]: 0 (Herbicidal rate of 5% or less (almost no effect)); Herbicidal effect by foliage application, K: Italian ryegrass [20, 22]: 0 (Herbicidal rate of 5% or less (almost no effect)) |
| COc1ccccc1-c1sc2c(F)cc(F)cc2c1-c1c(O)c(C)nn(C)c1=O [6-001] |  |  |  |  |  |  |  |  |  |  |  |  |  |  |  | 2 (Herbicidal rate of 20% or more and less than 40%) | 3 (Herbicidal rate of 40% or more and less than 70%) | 4 (Herbicidal rate of 70% or more and less than 90%) | 0 (Herbicidal rate of 5% or less (almost no effect)) | 3 (Herbicidal rate of 40% or more and less than 70%) | herbicidal effect on southern crabgrass (F) [3]: 0 (Herbicidal rate of 5% or less (almost no effect)); herbicidal effect on velvetleaf (M) [4]: 4 (Herbicidal rate of 70% or more and less than 90%); herbicidal effect on blackgrass (J) [17]: 0 (Herbicidal rate of 5% or less (almost no effect)); herbicidal effect on lambsquarters (O) [10]: 3 (Herbicidal rate of 40% or more and less than 70%); herbicidal effect on green foxtail (G) [12]: 2 (Herbicidal rate of 20% or more and less than 40%); herbicidal effect on persian speedwell (R) [18]: 0 (Herbicidal rate of 5% or less (almost no effect)); herbicidal effect on windgrass (L) [19]: 0 (Herbicidal rate of 5% or less (almost no effect)); herbicidal effect on Italian ryegrass (K) [20]: 0 (Herbicidal rate of 5% or less (almost no effect)) |
| CCOc1ccccc1-c1oc2ccc(Cl)cc2c1-c1c(O)c(C)nn(C)c1=O [9-003] |  |  |  |  |  |  |  |  |  |  |  |  |  |  |  |  |  |  | 0 (Herbicidal rate of 5% or less (almost no effect)) | 0 (Herbicidal rate of 5% or less (almost no effect)) | Herbicidal effect on D (Chinese sprangletop), foliage application [2, 21]: 0 (Herbicidal rate of 5% or less (almost no effect)); herbicidal effect on southern crabgrass (F) [3]: 0 (Herbicidal rate of 5% or less (almost no effect)); herbicidal effect on velvetleaf (M) [4]: 3 (Herbicidal rate of 40% or more and less than 70%); herbicidal effect on blackgrass (J) [17]: 0 (Herbicidal rate of 5% or less (almost no effect)); Herbicidal effect on H (barnyard grass), foliage application [9, 21]: 3 (Herbicidal rate of 40% or more and less than 70%); herbicidal effect on lambsquarters (O) [10]: 0 (Herbicidal rate of 5% or less (almost no effect)); herbicidal effect on green foxtail (G) [12]: 0 (Herbicidal rate of 5% or less (almost no effect)); herbicidal effect on persian speedwell (R) [18]: 3 (Herbicidal rate of 40% or more and less than 70%); herbicidal effect on windgrass (L) [19]: 0 (Herbicidal rate of 5% or less (almost no effect)); herbicidal effect on Italian ryegrass (K) [20]: 0 (Herbicidal rate of 5% or less (almost no effect)); Herbicidal effect on E (rice flat sedge), foliage application [15, 21]: 1 (Herbicidal rate of 5% or more and less than 20%) |
